These are literature values, as cited in publication PMC2552397 (Journal of medicinal chemistry, 2008).

The target in one data set is T1, GGPPS (Homo sapiens, UniProt O95749).
T1 sequence (O95749 1-300): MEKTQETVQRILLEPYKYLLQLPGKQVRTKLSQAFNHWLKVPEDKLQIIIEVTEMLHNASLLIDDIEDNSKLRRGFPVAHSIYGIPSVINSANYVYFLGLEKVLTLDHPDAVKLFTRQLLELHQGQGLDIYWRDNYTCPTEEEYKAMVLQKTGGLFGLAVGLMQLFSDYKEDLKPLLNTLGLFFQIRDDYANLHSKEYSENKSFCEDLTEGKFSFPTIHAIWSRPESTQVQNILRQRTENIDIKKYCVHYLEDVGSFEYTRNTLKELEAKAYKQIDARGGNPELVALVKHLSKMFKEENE
As to conditions: in words.

Another data set relates to K562 tumor cell line. As to conditions: in words.

The structures appear in SMILES notation.

Take `CCCCCCCCCC(O)(P(=O)(O)O)P(=O)(O)O` [compound 4]: the “activity against GGPPS” value on GGPPS was “quite potent activity”. With `CC(C)=CCC/C(C)=C/CC(C/C=C(\C)CCC=C(C)C)(P(=O)(O)O)P(=O)(O)O` [compound 5, digeranyl methylene bisphosphonate], in the data set on K562 tumor cell line, the “activity against a K562 tumor cell line” value was “potent activity”. Moreover, the “activity against GGPPS” value at GGPPS is reported as “potent activity”.
